Literature values as cited in patent US20100137843A1, “Delivery devices for modulating inflammation” (Searete LLC, a limited liability corporation of the State …, priority 2008, published 2010).
Each block holds one molecule with its values, some of them ahead of it.

What was measured:
proteasome = settings: cultured breast cancer cells; copper-bound
aldehyde dehydrogenase = settings: without toxicity
Toll-like receptor 4 = Toll-like receptor 4 (Homo sapiens, UniProt O00206)
[1] = single agent, 400 mg infused over one hour
Epha1 = settings: at nanomolar concentrations
Src family kinase = settings: also its dependent cellular responses

Toll-like receptor 4, sequence (O00206 24-839, species assumed): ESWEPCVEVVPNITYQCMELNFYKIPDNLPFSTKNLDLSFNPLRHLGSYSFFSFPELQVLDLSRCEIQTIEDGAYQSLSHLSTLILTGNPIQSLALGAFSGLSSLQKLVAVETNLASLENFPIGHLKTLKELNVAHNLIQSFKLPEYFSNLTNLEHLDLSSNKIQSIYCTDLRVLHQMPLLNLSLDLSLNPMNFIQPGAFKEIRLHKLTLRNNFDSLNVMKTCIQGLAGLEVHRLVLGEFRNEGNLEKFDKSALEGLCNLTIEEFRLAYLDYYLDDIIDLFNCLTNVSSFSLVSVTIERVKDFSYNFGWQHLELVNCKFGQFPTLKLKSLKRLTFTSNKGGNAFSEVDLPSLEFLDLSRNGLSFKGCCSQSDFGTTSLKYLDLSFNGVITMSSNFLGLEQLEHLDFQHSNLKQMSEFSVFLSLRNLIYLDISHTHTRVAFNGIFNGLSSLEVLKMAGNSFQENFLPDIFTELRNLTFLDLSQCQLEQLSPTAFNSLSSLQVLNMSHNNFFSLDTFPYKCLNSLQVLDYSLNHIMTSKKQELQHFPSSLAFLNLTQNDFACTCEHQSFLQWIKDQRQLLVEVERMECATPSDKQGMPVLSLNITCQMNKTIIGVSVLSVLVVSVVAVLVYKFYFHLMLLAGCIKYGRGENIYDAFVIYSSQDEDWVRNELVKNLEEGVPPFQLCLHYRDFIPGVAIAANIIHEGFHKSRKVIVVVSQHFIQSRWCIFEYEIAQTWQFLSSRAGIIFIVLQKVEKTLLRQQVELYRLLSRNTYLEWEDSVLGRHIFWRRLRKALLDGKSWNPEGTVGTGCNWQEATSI

Compound: CCN(CC)C(=S)SSC(=S)N(CC)CC [Disulfiram, 1-(diethylthiocarbamoyldisulfanyl)-N,N-diethyl-methanethioamide]
proteasomal activity (proteasome): inhibits proteasomal activity | inhibition of aldehyde dehydrogenase (aldehyde dehydrogenase): inhibits

inhibition of Toll-like receptor 4 (Toll-like receptor 4): inhibitor
Compound: Cl.Cl.Nc1ccccc1Oc1ccc2c(N)nsc2c1 [Example M62812, 3-amino-6-(2-aminophenoxy)-1,2-benzisothiazole dihydrochloride]

Compound: CCN(CC)CCCC(C)Nc1ccnc2cc(Cl)ccc12.O=P(O)(O)O.O=P(O)(O)O (stereo not drawn) [Chloroquine phosphate, 7-chloro-4-[[4-(diethylamino)-1-methylbutyl]amino]quinoline phosphate (1:2)]
tolerability of intravenous infusion [1]: without complication

Compound: Cc1nc(Nc2ncc(C(=O)Nc3c(C)cccc3Cl)s2)cc(N2CCN(CCO)CC2)n1.O [dasatinib, N-(2-chloro-6-methylphenyl)-2-[[6-[4-(2-hydroxyethyl)-1-piperazinyl]-2-methyl-4-pyrimidinyl]amino]-5-thiazolecarboxamide, monohydrate]
inhibition of Epha1 (Epha1): inhibits

inhibition of CpG-induced Src family kinase activation (Src family kinase): does not inhibit
Compound: CCN(CC)CCCC(C)Nc1ccnc2cc(Cl)ccc12 (stereo not drawn) [Chloroquine]
